Earlier results as cited in patent US20120245201A1, “Isopropylphenidate for Treatment of Attention-Deficit/Hyperactivity Disorder and Fatigue-Related Disorders and Conditions” (priority 2009, published 2012).

Legend:
[1] = metabolite after MPH; cited from earlier work
mouse model = conditions: 5 mg/kg i.p.; cited from earlier work

| SMILES | blood concentrations relative to the parent compound [1] | motor activity (mouse model) |
| --- | --- | --- |
| O=C(O)C(c1ccccc1)C1CCCCN1 (centres unmarked) [RA, ritalinic acid] | 30-60 times |  |
| CCOC(=O)C(c1ccccc1)C1CCCCN1 (stereo not drawn) [d-EPH] |  | significant motor activity |
